According to PubChem BioAssay AID256 (DTP/NCI, 2004):
Several values for one entry are separate records, joined by “and”; a condition that tells them apart may be missing. Equal values may be shown once. Toxic doses and inconclusive results are not listed.

Tested on: CD2F1 mice, L1210 leukemia ip, survival T/C
Assay: NCI In Vivo Anticancer Drug Screen. Data for tumor model L1210 Leukemia (intraperitoneal) in CD2F1 (CDF1) mice
Details: higher = longer survival
Summary of the method: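 Antitumor effect is scored in animals hosting a serially transplanted tumor. Values compare compound-dosed animals against vehicle-only controls as a simple quotient.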

[1] = endpoint: mean survival time, dose: 100.0 mg/kg/injection, schedule: Q01DX001 (ip), vehicle: saline with Tween-80
[2] = endpoint: mean survival time, dose: 200.0 mg/kg/injection, schedule: Q01DX001 (ip), vehicle: saline with Tween-80
[3] = endpoint: mean survival time, dose: 400.0 mg/kg/injection, schedule: Q01DX001 (ip), vehicle: saline with Tween-80
[4] = endpoint: mean survival time, dose: 100.0 mg/kg/injection, schedule: Q01DX009 (ip), vehicle: saline with Tween-80
[5] = endpoint: mean survival time, dose: 100.0 mg/kg/injection, schedule: Q04DX003 (ip), vehicle: saline with Tween-80
[6] = endpoint: mean survival time, dose: 200.0 mg/kg/injection, schedule: Q01DX009 (ip), vehicle: saline with Tween-80
[7] = endpoint: mean survival time, dose: 200.0 mg/kg/injection, schedule: Q04DX003 (ip), vehicle: saline with Tween-80
[8] = endpoint: mean survival time, dose: 400.0 mg/kg/injection, schedule: Q01DX009 (ip), vehicle: saline with Tween-80
[9] = endpoint: mean survival time, dose: 400.0 mg/kg/injection, schedule: Q04DX003 (ip), vehicle: saline with Tween-80

NC(CSC(c1ccccc1)(c1ccccc1)c1ccccc1)C(=O)NCC(=O)O (stereo not given)
T/C (endpoint: mean survival time, dose: 25.0 mg/kg/injection, schedule: Q01DX009 (ip), vehicle: saline): 110 % of control
T/C (endpoint: mean survival time, dose: 200.0 mg/kg/injection, schedule: Q01DX009 (ip), vehicle: saline): 171 % of control

CO[C@@]12[C@@H]3N[C@@H]3CN1C1=C(C(=O)C(N3CCCC3)=C(C)C1=O)[C@@H]2COC(N)=O
T/C (endpoint: median survival time, dose: 3.12 mg/kg/injection, schedule: Q01DX001 (ip), vehicle: saline with Tween-80): 165 % of control
T/C (endpoint: median survival time, dose: 6.26 mg/kg/injection, schedule: Q01DX001 (ip), vehicle: saline with Tween-80): 151 % of control
T/C (endpoint: median survival time, dose: 12.0 mg/kg/injection, schedule: Q01DX001 (ip), vehicle: saline with Tween-80): 152 % of control and 197 % of control
T/C (endpoint: median survival time, dose: 12.5 mg/kg/injection, schedule: Q01DX001 (ip), vehicle: saline with Tween-80): 370 % of control
T/C (endpoint: median survival time, dose: 24.0 mg/kg/injection, schedule: Q01DX001 (ip), vehicle: saline with Tween-80): 171 % of control and 326 % of control
T/C (endpoint: median survival time, dose: 25.0 mg/kg/injection, schedule: Q01DX001 (ip), vehicle: saline with Tween-80): 111 % of control
T/C (endpoint: median survival time, dose: 50.0 mg/kg/injection, schedule: Q01DX001 (ip), vehicle: saline with Tween-80): 91 % of control

O=C(Cc1ccc([N+](=O)[O-])cc1)Nc1ccc(O)cc1
T/C [1]: 98 % of control
T/C [2]: 104 % of control
T/C [3]: 101 % of control

O=[N+]([O-])c1ccc(C2N(Cc3ccc(Cl)cc3)CCN2Cc2ccc(Cl)cc2)cc1
T/C [1]: 92 % of control
T/C [4]: 95 % of control
T/C [5]: 98 % of control
T/C [2]: 96 % of control
T/C [6]: 88 % of control
T/C [7]: 98 % of control
T/C [3]: 93 % of control
T/C [8]: 91 % of control
T/C [9]: 90 % of control

CC1SC(=Nc2ccc(S(N)(=O)=O)cc2)NC1=O (stereo not given)
T/C (endpoint: mean survival time, dose: 50.0 mg/kg/injection, schedule: Q04DX002 (ip), vehicle: saline with Tween-80): 105 % of control
T/C (endpoint: mean survival time, dose: 100.0 mg/kg/injection, schedule: Q04DX002 (ip), vehicle: saline with Tween-80): 105 % of control
T/C [2]: 89 % of control
T/C (endpoint: mean survival time, dose: 200.0 mg/kg/injection, schedule: Q04DX002 (ip), vehicle: saline with Tween-80): 102 % of control

Cc1ccc2cc3c(cc2c1C)sc1ccccc13
T/C (endpoint: mean survival time, dose: 8.8 mg/kg/injection, schedule: Q04DX003 (ip), vehicle: other): 108 % of control
T/C (endpoint: mean survival time, dose: 17.5 mg/kg/injection, schedule: Q04DX003 (ip), vehicle: other): 115 % of control
T/C (endpoint: mean survival time, dose: 35.0 mg/kg/injection, schedule: Q04DX003 (ip), vehicle: other): 108 % of control
T/C (endpoint: mean survival time, dose: 70.0 mg/kg/injection, schedule: Q04DX003 (ip), vehicle: other): 97 % of control
T/C (endpoint: mean survival time, dose: 140.0 mg/kg/injection, schedule: Q04DX003 (ip), vehicle: other): 93 % of control

COc1cc(OC)c2c(O)c3c(c(-c4ccc5cc6c(c(O)c5c4O)C(=O)CC(C)(O)C6)c2c1)CC(C)OC3C (stereo not given)
T/C (endpoint: mean survival time, dose: 0.5 mg/kg/injection, schedule: Q01DX009 (ip), vehicle: Klucel (hydroxypropylcellulose) (HPC)): 103 % of control
T/C (endpoint: mean survival time, dose: 1.0 mg/kg/injection, schedule: Q01DX009 (ip), vehicle: Klucel (hydroxypropylcellulose) (HPC)): 100 % of control
T/C (endpoint: mean survival time, dose: 2.0 mg/kg/injection, schedule: Q01DX009 (ip), vehicle: Klucel (hydroxypropylcellulose) (HPC)): 103 % of control

O=C1C2C(C(=O)N1c1ccc([N+](=O)[O-])cc1)C1c3ccccc3C2C2CCCCN21 (stereo not given)
T/C (endpoint: mean survival time, dose: 100.0 mg/kg/injection, schedule: Q01DX001 (ip), vehicle: Klucel (hydroxypropylcellulose) (HPC)): 93 % of control
T/C (endpoint: mean survival time, dose: 200.0 mg/kg/injection, schedule: Q01DX001 (ip), vehicle: Klucel (hydroxypropylcellulose) (HPC)): 101 % of control
T/C (endpoint: mean survival time, dose: 400.0 mg/kg/injection, schedule: Q01DX001 (ip), vehicle: Klucel (hydroxypropylcellulose) (HPC)): 100 % of control

CCc1ncc(C(O)c2ccc(Cl)cc2)n1Cc1ccccc1 (stereo not given)
T/C [4]: 92 % of control
T/C [6]: 95 % of control
T/C [8]: 92 % of control

NC1=NCN(c2ccc(OCCOc3ccc(NC(=O)CBr)cc3)cc2)C(N)=N1
T/C (endpoint: mean survival time, dose: 37.5 mg/kg/injection, schedule: Q04DX002 (ip), vehicle: saline with Tween-80): 96 % of control
T/C (endpoint: mean survival time, dose: 75.0 mg/kg/injection, schedule: Q04DX002 (ip), vehicle: saline with Tween-80): 96 % of control
T/C (endpoint: mean survival time, dose: 150.0 mg/kg/injection, schedule: Q04DX002 (ip), vehicle: saline with Tween-80): 90 % of control

c1cc(Oc2ccc3ccncc3c2)c2ccncc2c1
T/C [5]: 95 % of control
T/C [7]: 100 % of control
T/C [9]: 101 % of control
